Assay results reported in patent US11135160B2, “Use of chlorogenic acid in preparing pharmaceuticals for treatment of LAG-3-mediated disease” (SICHUAN JIUZHANG BIOLOGICAL SCIENCE AND TECHNOLOGY CO. LTD, priority 2016, dated 2021).

Legend:
LAG-3 [1] = test: Content of LAG-3 in CLL cells, ELISA with human lymphocyte activation gene 3 detection kit; type: cell-based; conditions: 48 h
Procedure: (§1) CLL cells and JurkatE6-1 cells in exponential phase of growth with good conditions were inoculated in 6 well plate at a concentration of 5×10^5/ml. Each kind of cells were set four groups, and each group has three repeat holes for administration. Amongst, three chlorogenic acid groups received the drug dissolved in blank 1640 medium (1 mL) at the desired concentration, while the blank control group received the same volume of blank 1640 medium. [table] In this example, by ELISA experiment, the activity of LAG-3 in cells of each group was determined using human lymphocyte activation gene 3 detection kit. After cells of each group acted with corresponding drugs for 48 h, cell culture fluid of each group was collected and divided into two parts. The protein of one part was quantitated using BCA method, and the activity of LAG-3 in cells of each group was determined using human lymphocyte activation gene 3 detection kit, to calculate the content of LAG-3 in each group.

LAG-3 [2] = test: Content of LAG-3 in JurkatE6-1 cells, ELISA with human lymphocyte activation gene 3 detection kit; type: cell-based; conditions: 48 h
Procedure: as §1

LAG-3 gene [3] = test: Expression of LAG-3 gene in CLL cells by RT-PCR; type: cell-based, human; conditions: 48 h, vs blank control group (*p<0.05)
Procedure: (§2) CLL cells and JurkatE6-1 cells in exponential phase of growth with good conditions were inoculated in 6 well plate at a concentration of 5×10^5/ml. Each kind of cells were set four groups, and each group has three repeat holes for administration. Amongst, three chlorogenic acid groups received the drug dissolved in blank 1640 medium (1 mL) at the desired concentration, while the blank control group received the same volume of blank 1640 medium.
(§3) Using RNA prep Pure cultured cell/bacteria total RNA extraction kit (centrifugal column), total RNA was extracted from cells, and the operative procedures were carried out as the instructions. The detailed extraction procedures are briefly described as follows:
(§4) Using cDNA first strand synthesis kit and the resultant RNA solution by above extraction, the corresponding first strand cDNA was synthesized. The detailed reverse transcription procedures were carried out according to the instructions, that is briefly described as follows:
(§5) Because EvaGreen fluorescent dye can produce strong fluorescence when binding with the double-stranded DNA, the total amount of DNA formed by reaction can be obtained by detecting the final fluorescence intensity. To the test tube, were added fluorescent dye, cDNA product synthesized in steps (1) and (2), LAG-3 primer (Forward primer SEQ ID NO: 1 5′-[…]-3′, downstream primer SEQ ID NO: 2 5′-[…]-3′), and well mixed, then subjected to RT-PCR measurement. Amongst, […] group was set for each sample for calculating the relative magnitude, to perform the relative quantitation.

LAG-3 gene [4] = test: Expression of LAG-3 gene in JurkatE6-1 cells by RT-PCR; type: cell-based, human; conditions: 48 h, vs blank control group (*p<0.05)
Procedure: as §2, §3, §4, §5

LAG-3 protein = test: Immunohistochemistry of LAG-3 protein expression in in situ lesion of GL261 glioma mice; type: in vivo, C57BL/6 mice; conditions: 7 days, chlorogenic acid 40 mg/kg intraperitoneal, temozolomide 20 mg/kg oral, saline control 69%
Procedure: GL261 glioma cells in exponential phase of growth were prepared as GL261 single cell suspension at a concentration of 5×10^5/μL. After anesthetized with 0.75% pentobarbital sodium at 6 μL/g, the hair at the puncture site was stripped, and the heads of mice were fixed with ALC-H mouse brain stereotactic apparatus for longitudinal incision of scalp. […] GL261 single cell suspension was injected using micro pump at 2.5 μL/min, and the pinpoint was sealed with bone wax, then the incision of scalp was carefully sutured. Totally, 35 mice were inoculated, and the remained 5 mice were normal. The dead mice were removed, and C57BL/6 mice inoculated with GL261 glioma cells were randomly divided to 3 groups, including the saline control group (NC group), chlorogenic acid injection group (CA group), and temozolomide (TMZ) positive control group. Amongst, CA group is intraperitoneally injected with 40 mg/kg chlorogenic acid everyday, NC group is injected with the same volume of saline, and TMZ treatment group orally takes 20 mg/kg temozolomide. […]
After completion of experiment, in situ lesion of each group mice was cut, while the brain tissue of 5 remained normal mice mentioned in step 2.2 was cut. […] The immunohistochemical results were analyzed by semiquantitative method, and finally, the expression rate of LAG-3 protein in different tissue sample was subjected to statistical analysis.

[5] = system: CD3+T lymphocytes and CD4+T lymphocytes; test: T cell proliferation in peripheral blood of GL261 glioma mice; type: in vivo, C57BL/6 mice; conditions: 40 mg/kg intraperitoneal, 7 days, vs saline control group
Procedure: GL261 glioma cells in exponential phase of growth were prepared as GL261 single cell suspension at a concentration of 5×10^5/μL. After anesthetized with 0.75% pentobarbital sodium at 6 μL/g, the hair at the puncture site was stripped, and the heads of mice were fixed with ALC-H mouse brain stereotactic apparatus for longitudinal incision of scalp. […] GL261 single cell suspension was injected using micro pump at 2.5 μL/min, and the pinpoint was sealed with bone wax, then the incision of scalp was carefully sutured. Totally, 35 mice were inoculated, and the remained 5 mice were normal. The dead mice were removed, and C57BL/6 mice inoculated with GL261 glioma cells were randomly divided to 3 groups, including the saline control group (NC group), chlorogenic acid injection group (CA group), and temozolomide (TMZ) positive control group. Amongst, CA group is intraperitoneally injected with 40 mg/kg chlorogenic acid everyday, NC group is injected with the same volume of saline, and TMZ treatment group orally takes 20 mg/kg temozolomide. [table] […] Detecting the proliferation status of T lymphocytes may reflect the strong/weak inhibitory action of LAG-3. […]

[6] = high dose 100 μM, vs blank control group (*p<0.05)
[7] = middle dose 50 μM, vs blank control group (*p<0.05)

| SMILES | content of LAG-3 (LAG-3 [1]; [6]) | content of LAG-3 (LAG-3 [1]; low dose 10 μM) | content of LAG-3 (LAG-3 [1]; [7]) | content of LAG-3 (LAG-3 [2]; [6]) | content of LAG-3 (LAG-3 [2]; low dose 10 μM) | content of LAG-3 (LAG-3 [2]; [7]) | expression level of LAG-3 gene (LAG-3 gene [3]; high dose 100 μM) | expression level of LAG-3 gene (LAG-3 gene [3]; low dose 10 μM) | expression level of LAG-3 gene (LAG-3 gene [3]; middle dose 50 μM) | expression level of LAG-3 gene (LAG-3 gene [4]; high dose 100 μM) | expression level of LAG-3 gene (LAG-3 gene [4]; low dose 10 μM) | expression level of LAG-3 gene (LAG-3 gene [4]; middle dose 50 μM) | average percentage of LAG-3 protein high expression (LAG-3 protein) | percentage of CD3+T lymphocytes in peripheral blood lymphocytes [5] | percentage of CD4+T lymphocytes in peripheral blood lymphocytes [5] |
| --- | --- | --- | --- | --- | --- | --- | --- | --- | --- | --- | --- | --- | --- | --- | --- |
| O=C(/C=C/c1ccc(O)c(O)c1)O[C@@H]1C[C@](O)(C(=O)O)C[C@@H](O)[C@H]1O [chlorogenic acid, 3-o-caffeoylquinic acid] | obviously different | lowered | obviously different | obviously different | lowered | obviously different | obviously different | obviously different | obviously different | obviously reduced | obviously reduced | obviously reduced | 23.78% | obviously promote the proliferation | obviously promote the proliferation |
| Cn1nnc2c(C(N)=O)ncn2c1=O [temozolomide, reference compound] | – | – | – | – | – | – | – | – | – | – | – | – | 44.83% | – | – |
